This note sets out measurements from patent publication US4864023A, “Pyrido(3,2,1-IJ)-1,3,4-benzoxadiazine derivatives” (priority 1988, dated 1989).

Converted amounts (≈) assume the structure as drawn.

Type in all cases: cell-based
The test system of test [1] is Pseudomonas aeruginosa NR 2950. Nature of the test: in vitro antibacterial activity, standard agar dilution method. To be noted: NR2950, aerobic, read-out: minimum inhibitory concentration (MIC).
The subject of test [2] is Staphylococcus epidermidis NR 2942. The test is described as above. To be noted: NR2942, aerobic, read-out: minimum inhibitory concentration (MIC).
For test [3], the system named is Bacteroides fragilis NR 2582. The description is as above. To be noted: NR2582, anaerobic, read-out: minimum inhibitory concentration (MIC).
Test [4] relates to Alcaligenes faecalis IFO 13111. The description is as above. To be noted: IFO13111, aerobic, read-out: minimum inhibitory concentration (MIC).
Test [5] concerns Myoplasma hominis NR 2952. The description is as above. To be noted: read-out: minimum inhibitory concentration (MIC).
The subject of test [6] is Peptostreptococcus anaerobius NR 2743. The description is as above. To be noted: NR2743, anaerobic, read-out: minimum inhibitory concentration (MIC).
In test [7] the test system is Clostridium perfringens NR 2612. The test is described as follows: microbe, parasite or virus in culture. To be noted: NR2612, read-out: minimum inhibitory concentration (MIC).
For test [8], the system named is Serratia marcescens IFO 12648. The test is described as follows: in vitro antibacterial activity, standard agar dilution method. The following applies: IFO12648, aerobic, read-out: minimum inhibitory concentration (MIC).
Test [9] has as its system Salmonella typhimurium IFO 12529. Described as above. The following applies: Salmonella enterica, aerobic, read-out: minimum inhibitory concentration (MIC).
The subject of test [10] is Clostridium moniliforme ATCC 25546. Described as above. The following applies: ATCC25546, anaerobic, read-out: minimum inhibitory concentration (MIC).
Test [11] deals with Fusobacterium varium ATCC 8501. The description is as above. To be noted: ATCC8501, anaerobic, read-out: minimum inhibitory concentration (MIC).
Test [12] has as its system Escherichia coli NIHJ JC-2. The description is as above. To be noted: NIHJJC2, aerobic, read-out: minimum inhibitory concentration (MIC).
The subject of test [13] is Peptococcus prevotii ATCC 9321. The test is described as above. To be noted: Anaerococcus prevotii, ATCC9321, anaerobic, read-out: minimum inhibitory concentration (MIC).
Test [14] deals with Bacillus subtilis PCI 219. The test is described as above. To be noted: PCI219, aerobic, read-out: minimum inhibitory concentration (MIC).

Take `CN1CCN(c2c(F)cc3c(=O)c(C(=O)O)cn4c3c2OCN4C)CC1` [Example 5, 9-fluoro-3-methyl-10-(4-methyl-1-piperazinyl)-7-oxo-2,3-dihydro-7H-pyrido[3,2,1-ij]-1,3,4-benzoxadiazine-6-carboxylic acid]: the MIC in test [1] is 0.78 µg/mL (≈ 2.15 µM); in test [2], 0.39 µg/mL (≈ 1.08 µM); in test [3], 0.78 µg/mL (≈ 2.15 µM); in test [4], 0.39 µg/mL (≈ 1.08 µM); in [5] it was 0.1 µg/mL (≈ 0.276 µM); in test [6] it was 0.39 µg/mL (≈ 1.08 µM). Further, the MIC in [7] was 0.39 µg/mL (≈ 1.08 µM); in test [8], 0.1 µg/mL (≈ 0.276 µM); in test [9], 0.025 µg/mL (≈ 0.069 µM); in [10] it was 0.78 µg/mL (≈ 2.15 µM); in test [11], 12.5 µg/mL (≈ 34.5 µM); in test [12], 0.025 µg/mL (≈ 0.069 µM). Also, the MIC in test [13] came to 1.56 µg/mL (≈ 4.31 µM); in test [14] it was 0.05 µg/mL (≈ 0.138 µM).
In the case of `CN1COc2c(N3CCC(N)C3)c(F)cc3c(=O)c(C(=O)O)cn1c23` (stereo not drawn) [Example 30, 10-(3-amino-1-pyrrolidinyl)-9-fluoro-3-methyl-7-oxo-2,3-dihydro-7H-pyrido[3,2,1-ij]-1,3,4-benzoxadiazine-6-carboxylic acid], the MIC came to 0.2 µg/mL (≈ 0.574 µM) in [1]; 0.2 µg/mL (≈ 0.574 µM) in test [2]; 0.39 µg/mL (≈ 1.12 µM) in [3]; 1.56 µg/mL (≈ 4.48 µM) in test [4]; 0.1 µg/mL (≈ 0.287 µM) in [5]; 0.013 µg/mL (≈ 0.0373 µM) in [6]. The MIC amounted to 0.1 µg/mL (≈ 0.287 µM) in [7]; 0.05 µg/mL (≈ 0.144 µM) in [8]; 0.0065 µg/mL (≈ 0.0187 µM) in [9]; 0.1 µg/mL (≈ 0.287 µM) in [10]; 0.013 µg/mL (≈ 0.0373 µM) in test [12]; 0.39 µg/mL (≈ 1.12 µM) in [13]. In addition, the MIC in test [14] turned out to be 0.025 µg/mL (≈ 0.0718 µM).
